Measured values as given in patent publication US11339171B2, “MDM2 inhibitors” (Gan & Lee Pharmaceuticals, priority 2017, dated 2022).
Several values for one entry are separate records, joined by “and”; a condition that tells them apart may be missing. Equal values may be shown once. Read-outs that look alike come from different tables or passages of the source.

Experiments:
[1] = test system: human osteosarcoma cell line SJSA-1; test: Inhibition of proliferation of human osteosarcoma cell line SJSA-1 (DAPI staining, In Cell Analyzer); details: Homo sapiens, SJSA-1, 72 h, read-out: IC50 (nM), inhibitory activity on proliferation of human osteosarcoma cell line SJSA-1, SJSA-1, incubated 72 h
MDM2 = biological target: T1, MDM2 (Homo sapiens, UniProt Q00987); test: Inhibition test of MDM2-P53 (GST-MDM2, Biotin-P53, Anti-GST-Tb, SA-XL665); type: binding
T1 construct: made in house
T1 sequence (Q00987 whole entry): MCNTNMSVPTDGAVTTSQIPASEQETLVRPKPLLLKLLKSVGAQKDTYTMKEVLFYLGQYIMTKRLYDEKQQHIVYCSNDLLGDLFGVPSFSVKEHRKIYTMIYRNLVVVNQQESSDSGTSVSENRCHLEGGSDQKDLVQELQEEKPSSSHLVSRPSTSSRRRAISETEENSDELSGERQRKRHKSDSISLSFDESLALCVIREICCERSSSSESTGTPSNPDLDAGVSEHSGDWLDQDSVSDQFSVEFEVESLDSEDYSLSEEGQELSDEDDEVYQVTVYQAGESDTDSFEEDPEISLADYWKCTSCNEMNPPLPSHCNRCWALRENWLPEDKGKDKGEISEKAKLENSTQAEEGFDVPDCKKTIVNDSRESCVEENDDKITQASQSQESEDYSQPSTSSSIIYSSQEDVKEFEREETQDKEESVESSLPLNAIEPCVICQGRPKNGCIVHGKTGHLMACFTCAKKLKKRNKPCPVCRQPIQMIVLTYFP
How it was run: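 Compounds, serially diluted 5-fold (twelve concentrations), were shaken for 90 min at 25° C with a mix of GST-MDM2 (4 nM final), Biotin-P53, anti-GST-Tb and SA-XL665. Buffer: 1×PBS, 0.1% BSA, 5 mM DTT, 1 mM AEBSF; signal read on a microplate reader.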

[2] = Pharmacokinetics in ICR mice after intravenous and intragastric administration; type: in vivo; details: for Vd: read-out: Vz; for MRT last: read-out: MRT(0-t); for MRT inf: read-out: MRT(0-∞)
How it was run: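 Plasma concentrations by LC-MS/MS (range 1 to 2000 ng/ml) following single intravenous (2 mg/kg) or oral gavage (5 mg/kg) dosing of fasted male ICR mice, three per group. Vehicle 5% DMSO + 40% PEG400 + 55% (10% HP-β-CD in saline); standard PK parameters including bioavailability calculated.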

[3] = ICR mice, IV 2 mg/kg, individual animals 301-303, 2 mg/kg
[4] = ICR mice, PO 5 mg/kg, individual animals 401-403, 5 mg/kg
[5] = male, ICR, mouse, plasma, iv, 2 mg/kg, ICR mice, IV 2 mg/kg, mean of 3 animals
[6] = male, ICR, mouse, plasma, po, 5 mg/kg, ICR mice, PO 5 mg/kg, individual animals 401-403
[7] = male, ICR, mouse, plasma, po, 5 mg/kg, ICR mice, PO 5 mg/kg, mean of 3 animals

## COc1nc(OCCF)ncc1-c1nc2c(n1C(C)C)[C@@]1(C(=O)Nc3cc(Cl)ccc31)N(c1cc(Cl)ccc1C)C2=O [Example S-140, (S)-6-chloro-5′-(5-chloro-2-methylphenyl)-2′-(2-(2-fluoroethoxy)-4-methoxypyrimidin-5-yl)-3′-isopropyl-3′H-spiro[dihydroindole-3,4′-pyrrolo[3,4-d]imidazole]-2,6′(5′H)-dione]
[1]
  IC50: 81.5 nM
MDM2
  IC50: 1.06 nM
[2]; [3]
  AUC(0-t): 9144.58 ng·h/mL and 19456.40 ng·h/mL and 11628.12 ng·h/mL
  CL: 3.37 mL/min/kg and 1.67 mL/min/kg and 2.26 mL/min/kg
  Cmax: 6627.89 ng/mL and 5215.16 ng/mL
  MRT(0-t): 1.58 h and 3.73 h and 1.94 h
  Vz: 0.61 L/kg and 0.52 L/kg
  t1/2: 1.70 h and 4.19 h and 2.67 h
[2]; ICR mice, PO 5 mg/kg vs IV 2 mg/kg, mean
  F*: 72.11%
[2]; [4]
  AUC(0-t): 26053.96 ng·h/mL and 23914.34 ng·h/mL
  AUC(0-∞): 26994.24 ng·h/mL and 26699.24 ng·h/mL
  Cmax: 5947.01 ng/mL and 4972.85 ng/mL
  MRT(0-t): 2.67 h
  MRT(0-∞): 2.93 h and 3.85 h
  Tmax: 1.00 h
  t1/2: 1.54 h and 2.38 h
[2]; male, ICR, mouse, plasma, iv, 2 mg/kg, ICR mice, IV 2 mg/kg, individual animals 301-303, read-out: Cmax
  Cmax: 4540 ng/mL
[2]; male, ICR, mouse, plasma, iv, 2 mg/kg, ICR mice, IV 2 mg/kg, individual animals 301-303, read-out: Tmax
  Tmax: 0.08 h
[2]; male, ICR, mouse, plasma, iv, 2 mg/kg, ICR mice, IV 2 mg/kg, individual animals 301-303
  Vd: 0.5 L/kg
[2]; [5]
  clearance: 2.43 mL/min/kg
  MRT last: 2.42 h
  Vd: 0.54 L/kg
[2]; male, ICR, mouse, plasma, iv, 2 mg/kg, ICR mice, IV 2 mg/kg, mean of 3 animals, read-out: AUC(0-t)
  AUC(0-t): 13400 ng·h/mL
[2]; male, ICR, mouse, plasma, iv, 2 mg/kg, ICR mice, IV 2 mg/kg, mean of 3 animals, read-out: Cmax
  Cmax: 5460 ng/mL
[2]; male, ICR, mouse, plasma, iv, 2 mg/kg, ICR mice, IV 2 mg/kg, mean of 3 animals, read-out: Tmax
  Tmax: 0.083 h
[2]; male, ICR, mouse, plasma, iv, 2 mg/kg, ICR mice, IV 2 mg/kg, mean of 3 animals, read-out: t1/2 (converted)
  half-life: 2.86 h
[2]; male, ICR, mouse, plasma, iv, 2 mg/kg, ICR mice, IV 2 mg/kg, mean of 3 animals, second AUC column (c5) of Table 26, read-out: AUC(0-t)
  AUC(0-t): 14900 ng·h/mL
[2]; male, ICR, mouse, plasma, iv, 2 mg/kg, ICR mice, IV 2 mg/kg, mean of 3 animals, second MRT column (c7) of Table 26
  MRT last: 3.36 h
[2]; [6]
  AUC(0-inf): 24700 ng·h/mL
  MRT last: 2.97 h
  MRT inf: 3.69 h
[2]; male, ICR, mouse, plasma, po, 5 mg/kg, ICR mice, PO 5 mg/kg, individual animals 401-403, read-out: AUC(0-t)
  AUC(0-t): 22600 ng·h/mL
[2]; male, ICR, mouse, plasma, po, 5 mg/kg, ICR mice, PO 5 mg/kg, individual animals 401-403, read-out: Cmax
  Cmax: 4250 ng/mL
[2]; male, ICR, mouse, plasma, po, 5 mg/kg, ICR mice, PO 5 mg/kg, individual animals 401-403, read-out: Tmax
  Tmax: 2 h
[2]; male, ICR, mouse, plasma, po, 5 mg/kg, ICR mice, PO 5 mg/kg, individual animals 401-403, read-out: t1/2 (converted)
  half-life: 2.19 h
[2]; [7]
  AUC(0-inf): 26100 ng·h/mL
  MRT last: 2.87 h
  MRT inf: 3.49 h
[2]; male, ICR, mouse, plasma, po, 5 mg/kg, ICR mice, PO 5 mg/kg, mean of 3 animals, read-out: AUC(0-t)
  AUC(0-t): 24200 ng·h/mL
[2]; male, ICR, mouse, plasma, po, 5 mg/kg, ICR mice, PO 5 mg/kg, mean of 3 animals, read-out: Cmax
  Cmax: 5060 ng/mL
[2]; male, ICR, mouse, plasma, po, 5 mg/kg, ICR mice, PO 5 mg/kg, mean of 3 animals, read-out: Tmax
  Tmax: 1.67 h
[2]; male, ICR, mouse, plasma, po, 5 mg/kg, ICR mice, PO 5 mg/kg, mean of 3 animals, read-out: t1/2 (converted)
  half-life: 2.04 h
[2]; male, ICR, mouse, plasma, po, 5 mg/kg, oral intragastric administration 5 mg/kg, read-out: AUC0-t
  AUC(0-t): 24200 ng·h/mL
[2]; male, ICR, mouse, plasma, po, 5 mg/kg, oral intragastric administration 5 mg/kg, read-out: half-life (converted)
  half-life: 2.04 h
